Source: PubChem BioAssay AID1117324 (Cheminformatics & Chemogenomics Research Group (CCRG), …, 2015)
Active and inactive are the calls of the source. The rule behind the calls is not given here. Where a SMILES comes first, the peptide text is derived from it. Bridges are numbered along the chain shown (N, C = ends). [ ]: non-standard residue; d: D form. hArg = N=C(N)NCCCC[C@H](N)C(=O)O; Mpa = O=C(O)CCS

System: VEGF-stimulated ADSC/ECFC co-culture, nuclear area imaging
Assay: nuclear area loss in endothelial-stromal co-culture, dose response, cell-based, VEGF stimulation, IC50 (AID 1117324)

| SMILES | IC50 |
| --- | --- |
| Cc1cc(N)c2ccccc2[n+]1CCCCCCCCCC[n+]1c(C)cc(N)c2ccccc21 | > 10 µM (inactive) |
| CC(CC=O)CCCC(C)(C)O (stereo not drawn) | > 10 µM (inactive) |
| O=[N+]([O-])C(Br)(CO)CO | > 10 µM (inactive) |
| Clc1cc(Cl)c(OCC#CI)cc1Cl | > 10 µM (inactive) |
| CCCCCCCCCCCC[N+](C)(C)Cc1ccccc1 | 6.93 µM (inactive) |
| O=C1c2c(O)cccc2Cc2cccc(O)c21 | > 10 µM (inactive) |
| Cn1ccc2cc3c(cc21)CCN3C(=O)Nc1cccnc1 | > 10 µM (inactive) |
| C#C[C@]1(O)CC[C@@H]2[C@@H]3CCC4=CCCC[C@@H]4[C@H]3C(=C)C[C@@]21CC | 9.57 µM (inactive) |
| CCCCC(CC)COC(=O)C(C#N)=C(c1ccccc1)c1ccccc1 (stereo not drawn) | 3.29 µM |
| CCC(C)n1ncn(-c2ccc(N3CCN(c4ccc(OC[C@H]5CO[C@](Cn6cncn6)(c6ccc(Cl)cc6Cl)O5)cc4)CC3)cc2)c1=O (stereo partly drawn) | > 10 µM (inactive) |
| CN1CC[C@H](c2c(O)cc(O)c3c(=O)cc(-c4ccccc4Cl)oc23)[C@H](O)C1 | 0.328 µM |
| CN(C)CCOC1=Cc2ccccc2Sc2ccc(Cl)cc21 | > 10 µM (inactive) |
| C/C(=C(/OCCOc1ccc(Cl)cc1)c1ccc(Cl)cc1Cl)n1ccnc1 | 9.42 µM (inactive) |
| Cc1c(C(=O)NN2CCCCC2)nn(-c2ccc(Cl)cc2Cl)c1-c1ccc(Cl)cc1 | > 10 µM (inactive) |
| Cc1c(O)cccc1C(=O)N[C@@H](CSc1ccccc1)[C@H](O)CN1C[C@H]2CCCC[C@H]2C[C@H]1C(=O)NC(C)(C)C | > 10 µM (inactive) |
| CNC(=O)Oc1cccc2ccccc12 | > 10 µM (inactive) |
| NC(=O)[C@@H]1CSSCCC(=O)N[C@@H](CCCCN=C(N)N)C(=O)NCC(=O)N[C@@H](CC(=O)O)C(=O)N[C@@H](Cc2c[nH]c3ccccc23)C(=O)N2CCC[C@H]2C(=O)N1 ([Mpa][hArg]GDWPC-NH2; disulfide 1-7) | > 10 µM (inactive) |
| CCCCCCCCCCCCCCCC[n+]1ccccc1 | 3.01 µM |
| CC(C(O)c1ccccc1)N(C)C/C=C/c1ccccc1 (stereo not drawn) | > 10 µM (inactive) |
| Oc1c(I)cc(Cl)c2cccnc12 | > 10 µM (inactive) |
| CCCCCCCCCCCCCCCC[N+](C)(C)CC | 7.58 µM (inactive) |
| Nc1cc(C(F)(F)F)ccc1S | > 10 µM (inactive) |

| SMILES | IC50 |
| --- | --- |
| CC[N+](CC)(CC)CCOc1ccc(/C=C/c2ccccc2)cc1 | > 10 µM (inactive) |
| O=C(NOCC1CC1)c1ccc(F)c(F)c1Nc1ccc(I)cc1Cl | > 10 µM (inactive) |
| C#C[C@]1(O)CC[C@H]2[C@@H]3CCc4cc(O)ccc4[C@H]3CC[C@@]21C | > 10 µM (inactive) |
| Clc1ccc(CO/N=C(\Cn2ccnc2)c2ccc(Cl)cc2Cl)c(Cl)c1 | 8.85 µM (inactive) |
| O=C(Nc1ccc([N+](=O)[O-])cc1)Nc1ccc([N+](=O)[O-])cc1 | > 10 µM (inactive) |
| Oc1ccc(Cl)cc1Cc1cc(Cl)ccc1O | 6 µM (inactive) |
| [O-][n+]1ccccc1SSc1cccc[n+]1[O-] | 1.79 µM |
| Clc1ccc(C(Cn2ccnc2)OCc2ccc(Sc3ccccc3)cc2)c(Cl)c1 (stereo not drawn) | > 10 µM (inactive) |
| C[S+](CC[C@H](N)C(=O)O)C[C@H]1O[C@@H](n2cnc3c(N)ncnc32)[C@H](O)[C@H]1O (stereo partly drawn) | > 10 µM (inactive) |
| O=c1c(-c2ccccc2)c1-c1ccccc1 | 6.75 µM (inactive) |
| CCN(CC)CCOc1ccc(/C(=C(\Cl)c2ccccc2)c2ccccc2)cc1 | > 10 µM (inactive) |
| Cc1ccc(C(=O)Oc2ccc(C(O)CNC(C)(C)C)cc2OC(=O)c2ccc(C)cc2)cc1 (stereo not drawn) | > 10 µM (inactive) |
| O=C1C2CC=CCC2C(=O)N1SC(Cl)(Cl)Cl (stereo not drawn) | > 10 µM (inactive) |
| O=C(O)c1ccc(-n2nc(-c3ccccc3O)nc2-c2ccccc2O)cc1 | > 10 µM (inactive) |
| O=c1oc2c(O)c(O)cc3c(=O)oc4c(O)c(O)cc1c4c23 | > 10 µM (inactive) |
| COc1ccc([C@@H]2Sc3ccccc3NC(=O)[C@@H]2O)cc1 | > 10 µM (inactive) |
| CNS(=O)(=O)CCc1ccc2[nH]cc(C3CCN(C)CC3)c2c1 | > 10 µM (inactive) |
| CC(C)(C)C1CCC(CC2=C(O)c3ccccc3C(=O)C2=O)CC1 (stereo not drawn) | > 10 µM (inactive) |
| Cc1cc2nc3ccc(=[N+](C)C)cc-3sc2cc1N | 8.15 µM (inactive) |
| CCCCCCCCCCCCCCCCCCOP(=O)([O-])OC1CC[N+](C)(C)CC1 | > 10 µM (inactive) |
| COCC(=O)O[C@]1(CCN(C)CCCc2nc3ccccc3[nH]2)CCc2cc(F)ccc2[C@@H]1C(C)C | > 10 µM (inactive) |
